Measurements published in paper PMC11053447, “Human ABC and SLC Transporters: The Culprit Responsible for Unspecific PSMA-617 Uptake?” (Pharmaceuticals, 2024).
Each block holds one molecule with its values, some of them ahead of it. Where a SMILES comes first, the peptide text is derived from it. [ ]: non-standard residue; d: D form. Sar = CNCC(=O)O

Assays:
MRP1 = MRP1 (Homo sapiens, UniProt P33527)
Protocol: The incubations were carried out in the presence of 4 mM ATP or AMP to distinguish between transporter-mediated uptake and passive diffusion into the vesicles. […] Afterwards, the reaction mixtures were pre-incubated for 15 min at 37 °C for MRP1 or at 32 °C for BCRP, MDR1 and MRP4, respectively. The transporter assay was initiated through the addition of 25 μL of pre-warmed 12 mM MgATP (or 12 mM AMP in assay buffer as a background control). The reactions were quenched through the addition of 200 μL of ice-cold washing buffer and immediate filtration via glass fiber filters mounted onto a 96-well plate (filter plate). The filters were washed (5 × 200 μL of ice-cold washing buffer) and dried, and the amount of probe substrate inside the filtered vesicles was determined using LSC. The experiments were conducted in triplicate.
Calculation of ATP-dependent transport and inhibition for vesicular transport inhibition
For all wells the amount of the translocated probe substrate was determined in counts per minute (cpm).
ATP-dependent transport (pmol/mg protein/min) is calculated for each concentration using the following
𝐴𝑐𝑐𝐴𝑇𝑃 ∙ 𝑉 ∙ 𝐶𝐶 𝐴𝑐𝑐𝐴𝑀𝑃 ∙𝑉 ∙𝐶𝐶
𝐴𝑇𝑃 − 𝑑𝑒𝑝𝑒𝑛𝑑𝑒𝑛𝑡 𝑎𝑐𝑐𝑢𝑚𝑢𝑙𝑎𝑡𝑖𝑜𝑛 = ( 𝑇𝐶𝑃𝑀 𝑠𝑢𝑏) − ( 𝑇𝐶𝑃𝑀 𝑠𝑢𝑏)
• AccATP: probe substrate accumulation with ATP (cpm)
• AccAMP: probe substrate accumulation with AMP (cpm)
• Tcpm: cpm in dosing solution V: volume per well (µL)
• CCsub: probe substrate concentration (µM)
• Prot: total protein per well (mg)
• t: incubation time (min)
Relative ATP-dependent transport (%) values were calculated using the following equation:
𝑅𝑒𝑙𝑎𝑡𝑖𝑣𝑒 𝐴𝑇𝑃 − 𝑑𝑒𝑝𝑒𝑛𝑑𝑒𝑛𝑡 𝑡𝑟𝑎𝑛𝑠𝑝𝑜𝑟𝑡 (%) = 𝐴 − 𝐵 ∙ 100
• A: amount of translocated substrate in the presence of test substance (TS) and ATP
• B: amount of translocated substrate in the presence of test substance (TS) and AMP
• C: amount of translocated substrate in the presence of solvent and ATP
• D: amount of translocated substrate in the presence of solvent and AMP
Relative inhibition (%) is calculated by setting probe substrate transport in the absence of test substance as
𝑅𝑒𝑙𝑎𝑡𝑖𝑣𝑒 𝑖𝑛ℎ𝑖𝑏𝑖𝑡𝑖𝑜𝑛 (%) = 𝐴𝑐𝑐𝑆𝑝𝑒𝑐𝑖𝑓𝑖𝑐,𝑥 ∙100
• Accspecific,x: transporter specific accumulation for a given sample (pmol/mg/min)
• Accspecific,vehicle: transporter specific accumulation for a solvent control (pmol/mg/min)

human OAT4 = biological target: T1, human OAT4 (Homo sapiens, UniProt Q9NSA0); assay: SLC transporter substrate assay, HEK293-OAT4-LV vs control HEK293-Mock-LV cells; conditions: 1 min
T1 sequence (Q9NSA0 1-550): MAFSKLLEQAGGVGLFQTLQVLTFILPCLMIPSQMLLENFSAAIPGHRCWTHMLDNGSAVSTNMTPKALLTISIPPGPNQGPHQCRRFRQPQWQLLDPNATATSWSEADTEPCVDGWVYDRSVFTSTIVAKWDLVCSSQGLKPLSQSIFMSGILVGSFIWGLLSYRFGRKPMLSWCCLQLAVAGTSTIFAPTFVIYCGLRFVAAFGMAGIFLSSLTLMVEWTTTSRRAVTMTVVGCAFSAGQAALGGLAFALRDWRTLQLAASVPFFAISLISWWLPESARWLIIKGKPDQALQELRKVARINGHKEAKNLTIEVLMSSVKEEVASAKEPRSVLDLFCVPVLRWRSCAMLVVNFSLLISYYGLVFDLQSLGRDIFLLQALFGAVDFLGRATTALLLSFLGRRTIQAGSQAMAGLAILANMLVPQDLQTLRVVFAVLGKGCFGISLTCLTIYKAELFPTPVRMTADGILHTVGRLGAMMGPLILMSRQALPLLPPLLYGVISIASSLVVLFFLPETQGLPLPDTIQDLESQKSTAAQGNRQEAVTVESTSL

human PEPT2 = biological target: T2, human PEPT2 (Homo sapiens, UniProt Q16348); assay: SLC transporter substrate assay, CHO-K1-PEPT2 vs control CHO-K1 cells; conditions: 8 min
T2 sequence (Q16348 1-729): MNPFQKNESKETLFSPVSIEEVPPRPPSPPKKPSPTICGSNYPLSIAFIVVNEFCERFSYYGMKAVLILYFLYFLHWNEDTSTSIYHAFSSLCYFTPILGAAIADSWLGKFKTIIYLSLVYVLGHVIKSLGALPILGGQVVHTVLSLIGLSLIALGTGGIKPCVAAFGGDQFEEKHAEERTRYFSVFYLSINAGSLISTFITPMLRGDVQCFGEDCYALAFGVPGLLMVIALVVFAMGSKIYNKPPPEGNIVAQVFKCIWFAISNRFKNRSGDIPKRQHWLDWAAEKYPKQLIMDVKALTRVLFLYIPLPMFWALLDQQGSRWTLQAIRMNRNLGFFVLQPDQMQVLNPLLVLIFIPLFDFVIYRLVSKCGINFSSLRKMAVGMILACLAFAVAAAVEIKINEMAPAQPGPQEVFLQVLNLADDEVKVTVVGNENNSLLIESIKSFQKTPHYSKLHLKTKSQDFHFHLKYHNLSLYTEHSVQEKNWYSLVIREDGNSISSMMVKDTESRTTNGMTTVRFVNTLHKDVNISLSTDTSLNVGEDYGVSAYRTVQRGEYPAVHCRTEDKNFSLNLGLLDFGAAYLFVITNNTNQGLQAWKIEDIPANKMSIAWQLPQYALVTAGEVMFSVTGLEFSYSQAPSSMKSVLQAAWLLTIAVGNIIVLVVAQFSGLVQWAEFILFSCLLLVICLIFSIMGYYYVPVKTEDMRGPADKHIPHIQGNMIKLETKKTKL
Protocol: The described cells were plated onto standard 24-well tissue culture plates at densities of 5 × 10^5 cells/well. […] Before starting the experiment, the cells were prepared by removing the medium and washing the cells twice with 300 µL of assay buffer. […] The cells were lysed by adding 300 µL of 0.1N NaOH, they were incubated for 10 min at 37 °C and 100 µL samples were taken from all the wells.
The amount of protein in each well was quantified using the BCA kit for protein determination (Sigma-Aldrich, St Louis, MO, USA). Positive controls were performed using a separate 96-well plate format according to Table S8 in SI4.
SI4. Results of transporter substrate assays (SLC)
Table S8: Parameters of positive controls, control cell lines and plating for SLC transporters assays.
KH: Krebs-Henseleit buffer, HBSS: Hank's balanced salt solution, MES: 2 -(N-morpholino) ethanesulfonic acid, cGMP:
Guanosine cyclic phosphate, E3S: Estrone -3-sulfate, Gly-Sar: Glycylsarcosine, MPP+: 1-methyl-4-phenylpyridinium.
Calculation of fold accumulation values for SLC transporter substrate assays The fold accumulation value was defined as the ratio of uptake of the test substance (TS) or probe substrate into transfected and control cells. If the fold accumulation is > 2 and can be inhibited by a known inhibitor of the transporter, the test substance can be considered as a substrate of the respective transporter.
Fold accumulation = UPTTRP
• UPTTRP: accumulated amount of test substance (TS) or probe substrate in transfected cells normalized by protein content […]
• UPTCTRL: accumulated amount of test substance (TS) or probe substrate in control cells normalized by protein content […]
Positive control conducted at pH 5.0.
Gly-Sar: Glycylsarcosine.

[1] = positive control inhibitor 200.0 µM, E217βG probe, mean (n=3) ± SD
[2] = positive control at pH 5.0: Gly-Sar 4 µM + Cefadroxil 200 µM
[3] = positive control at pH 5.0: Gly-Sar 4 µM

Sequence of MRP1 (P33527 whole entry): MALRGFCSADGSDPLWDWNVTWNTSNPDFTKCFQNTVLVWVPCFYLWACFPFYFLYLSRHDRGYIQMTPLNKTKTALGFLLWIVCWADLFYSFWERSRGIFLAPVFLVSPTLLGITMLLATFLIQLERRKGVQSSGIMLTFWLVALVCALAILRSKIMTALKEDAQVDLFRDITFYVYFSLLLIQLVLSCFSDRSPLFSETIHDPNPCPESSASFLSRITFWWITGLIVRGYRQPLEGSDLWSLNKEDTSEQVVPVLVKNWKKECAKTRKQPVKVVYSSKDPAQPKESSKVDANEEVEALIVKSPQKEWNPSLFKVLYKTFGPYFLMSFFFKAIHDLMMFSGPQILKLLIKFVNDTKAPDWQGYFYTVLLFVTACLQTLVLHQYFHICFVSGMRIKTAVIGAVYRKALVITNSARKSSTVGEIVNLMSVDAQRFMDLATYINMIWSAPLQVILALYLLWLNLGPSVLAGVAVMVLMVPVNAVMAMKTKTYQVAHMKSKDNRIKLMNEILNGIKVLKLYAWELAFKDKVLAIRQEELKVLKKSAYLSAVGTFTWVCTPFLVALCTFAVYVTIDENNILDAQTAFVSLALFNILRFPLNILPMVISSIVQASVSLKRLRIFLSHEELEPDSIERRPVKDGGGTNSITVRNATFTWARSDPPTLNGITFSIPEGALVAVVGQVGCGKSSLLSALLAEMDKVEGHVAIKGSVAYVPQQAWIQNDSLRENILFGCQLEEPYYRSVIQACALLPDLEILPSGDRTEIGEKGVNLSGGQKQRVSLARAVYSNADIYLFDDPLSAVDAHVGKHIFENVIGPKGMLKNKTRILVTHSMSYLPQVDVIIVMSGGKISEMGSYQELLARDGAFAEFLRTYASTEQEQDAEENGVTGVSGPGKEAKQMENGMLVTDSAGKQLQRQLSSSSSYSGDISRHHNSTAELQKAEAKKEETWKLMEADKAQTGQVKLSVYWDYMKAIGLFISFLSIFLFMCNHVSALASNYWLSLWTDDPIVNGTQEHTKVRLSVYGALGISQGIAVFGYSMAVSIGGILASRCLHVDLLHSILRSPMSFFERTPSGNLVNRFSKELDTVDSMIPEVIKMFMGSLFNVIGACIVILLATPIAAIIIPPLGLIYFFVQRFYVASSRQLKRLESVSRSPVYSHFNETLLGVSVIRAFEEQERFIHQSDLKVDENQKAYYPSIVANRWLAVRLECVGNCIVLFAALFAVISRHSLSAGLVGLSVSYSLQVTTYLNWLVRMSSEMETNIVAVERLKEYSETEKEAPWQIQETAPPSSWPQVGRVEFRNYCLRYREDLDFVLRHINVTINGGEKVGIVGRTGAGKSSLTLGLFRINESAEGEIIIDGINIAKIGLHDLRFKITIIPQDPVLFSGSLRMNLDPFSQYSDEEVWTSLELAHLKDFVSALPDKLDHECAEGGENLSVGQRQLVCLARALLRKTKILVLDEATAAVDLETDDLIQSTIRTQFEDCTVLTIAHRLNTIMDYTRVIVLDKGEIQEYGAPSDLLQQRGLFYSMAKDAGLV

SMILES: CCc1oc2ccccc2c1C(=O)c1cc(Br)c(O)c(Br)c1 [Benzbromarone, benzbromarone, reference compound]
inhibition at 3 min, 200 µM (MRP1; human, membrane vesicles from Sf9 cells transfected with human MRP1, […], 0.2 µM): 104%
ATP dependent transport (MRP1; [1]): -26.33 ± 10.19 pmol/mg/min
Relative ATP dependent transport (MRP1; [1]): -3.87 ± 1.50 % of control

SMILES: C[C@]12CC[C@@H]3c4ccc(OS(=O)(=O)[O-])cc4CC[C@H]3[C@@H]1CCC2=O.[Na+] [E3S, estrone-3-sulfate sodium salt, reference compound]
Fold accumulation (human OAT4; positive control: E3S 1 µM + Benzbromarone 300 µM): 5.12
Fold accumulation (human OAT4; positive control: E3S 1 µM): 24.16

Accumulation in PEPT2 transporter expressing cells (human PEPT2; [2]): 263.67 cpm
Accumulation in control cells (human PEPT2; [2]): 34.33 cpm
Accumulation, active transport (human PEPT2; [2]): 229.33 cpm
Fold accumulation (human PEPT2; [2]): 7.68
Accumulation in PEPT2 transporter expressing cells (human PEPT2; [3]): 1570.00 cpm
Accumulation in control cells (human PEPT2; [3]): 31.33 cpm
Accumulation, active transport (human PEPT2; [3]): 1538.67 cpm
Fold accumulation (human PEPT2; [3]): 50.11
SMILES: CN(CC(=O)O)C(=O)CN [Gly-Sar, glycylsarcosine, reference compound] (H-Gly-[Sar]-OH)
